One block for each compound: values may come before it. No end group written: not given here.
Legend:
CiOX [1] = target: T1, CiOX (Ciona intestinalis, UniProt F6YII5); format: cell-based; conditions: CiOX-eGFP-expressing Flp-In T-REx 293 cells
T1 sequence (F6YII5 1-372): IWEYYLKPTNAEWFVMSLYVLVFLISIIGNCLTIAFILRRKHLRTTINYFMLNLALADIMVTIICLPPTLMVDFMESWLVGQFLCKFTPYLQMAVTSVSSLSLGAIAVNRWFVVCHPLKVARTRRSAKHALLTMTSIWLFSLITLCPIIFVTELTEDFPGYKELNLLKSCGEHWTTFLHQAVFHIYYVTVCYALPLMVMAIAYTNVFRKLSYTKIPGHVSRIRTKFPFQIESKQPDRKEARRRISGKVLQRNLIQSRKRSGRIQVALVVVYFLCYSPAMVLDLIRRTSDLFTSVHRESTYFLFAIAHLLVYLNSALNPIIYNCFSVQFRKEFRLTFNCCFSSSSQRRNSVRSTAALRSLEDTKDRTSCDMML
Description: (§3) The Flp-In T-REx 293 human cell line (Thermofisher Scientific, Waltham, MA, USA), based on HEK293 cells, was cultured at 37 °C in 5% CO2 in an air‐ventilated humidified incubator according to manufacturer’s protocol, in high glucose Dulbecco’s Modified Eagle Medium (Biowest, Nuaillé, France) supplemented with 10% FBS, 1% Glutamax (Gibco), 10 mM HEPES (VWR LifeScience, Radnor, PA, USA), 100 U/mL penicillin G (Sigma Chemical Co., St. Louis, MO, USA), 80 U/mL streptomycin (Sigma), blasticidin (15 µg/mL) (InvivoGen, San Diego, CA, USA). The host cell line was maintained with zeocin (100 µg/mL) (InvitroGen, Carlsbad, CA, USA) and the transfected cell lines with hygromycin B (100 µg/mL) (InvitroGen). The experimental medium, the HEPES-buffered medium, (HBM: 137 mM NaCl, 5 mM KCl, 1.2 mM MgCl2, 0.44 mM KH2PO4, 4.2 mM NaHCO3, 1 mM CaCl2, 10 mM glucose, 20 mM HEPES, adjusted to pH 7.4 with NaOH), was used in all laboratory experiments. For the calcium elevation assay, HBM was supplemented with 1 mM probenecid [4-(dipropylsulfamoyl)benzoic acid] (Sigma) and 0.2% lipid-free bovine serum album.
(§4) Calcium measurements were performed in triplicate or quadruplicate. […] Non-linear curve-fitting were conducted with Prism 5 (GraphPad Software Inc., La Jolla, CA, USA) using the following equation: Y=basal+responsemax-basal/1+10^logEC50-X

[2] = test system: wild-type Flp-In T-REx 293 cells; test: Calcium elevation assay in wild-type Flp-In T-REx 293 cells; format: cell-based, human; conditions: for Ca2+ elevation in wild-type cells: wild-type Flp-In T-REx 293 cells, concentration-response, N = 3
Description: as §3, §4

CiOX [3] = test: Inhibition of human orexin peptide-mediated Ca2+ responses in CiOX-expressing cells; format: cell-based, Ciona intestinalis; conditions: agonist orexin-A and -B 1 µM; inhibitor 1 µM added 30 min before; mean ± S.E.M., N = 3-4
Description: Figure 7 The sensitivity of the human endogenous orexin peptide (1 µM) -mediated Ca^2+ responses to inhibitors (1 µM) in CiOX-expressing cells. The responses were normalized to the basal + inhibitor (0%) and the control agonist peptide response (in the absence of inhibitor; 100%) separately for each independent experiment before averaging. Data presented as mean ± S.E.M. N = 3–4. The significances are given in relation to the agonist control.
Intracellular calcium elevation is the apparent response upon orexin receptor activation in many cell types. The calcium elevation assay was conducted as previously described. Cells, 1 × 10^5 per well, were plated on polyethyleneimine (25 μg/mL, 1 h, 37 °C)-coated black, clear-bottom, half-area 96-well plates (Greiner). After 24 h, 100 ng/mL doxycycline was added onto the cells and incubated for another 24 h before loading the cells with FLIPR Calcium 5 Assay Kit (Molecular Devices, Sunnyvale, CA, USA) dissolved in and diluted with HBM and supplemented as described above. Cells were incubated for 1 h with the loading dye, before running the assay in FlexStation 3 fluorescence plate reader (Molecular Devices). Inhibitors were added manually at the midpoint of the probe incubation (30 min). Intracellular Ca^2+ levels were measured as fluorescent changes for 150 s (of which 30 s baseline prior to stimulation) with excitation at 485 nm, emission at 525 nm (recording every 1.3 s) at 37 °C.
The data were normalized in each experiment to the control response and then averaged between experiments by calculation of mean ± S.E.M. The N denotes the number of independent experiments and was always at least 3. Paired two-tailed t-test was used for comparison. Significances were as follows: * P < 0.05, ** P < 0.01, *** P < 0.001.

[4] = test system: allatotropin receptor of Tribolium castaneum; conditions: cited from earlier work
Source text: The data presented in this study strongly support the notion that this orphan C. intestinalis receptor, here called CiOX, is an orexin-like receptor. Despite the sequence divergence, the (proposed) binding cavity of hOX2 and CiOX are highly similar.

CiOX [5] = format: cell-based; conditions: 100 µM
Description: as §3, §4

[6] = test system: wild-type Flp-In T-REx 293 cells; test: Binding of TAMRA-orexin-A (fluorescence microscopy) in wild-type Flp-In T-REx 293 cells; set-up: species or system human; conditions: 30 nM; 10-minute incubation
Description: (§1) We have previously observed that the N-terminus of orexin-A can tolerate additions without apparent loss of activity on orexin receptors (Kukkonen, unpublished) and it has been reported that fluorescently labelled orexin-A can be used as probe for hOX1/2[56].
(§2) The cells were seeded on polyethyleneimine-coated 25 mm circular glass coverslips (Menzel-Gläser, Braunschweig, Germany). Twenty-four hours after seeding, cells were treated with doxycycline (100 ng/mL) and incubated for another 24 h. Then, the coverslip was washed once with HBM, before mounting in the microfluorometric experiment chamber. The imaging system, composed of the Sutter Lambda DG-4 xenon light source/filter shifter (Sutter Instrument Company, Novato, CA, USA), Nikon TE2000 epifluorescence microscope (Nikon, Tokyo, Japan), Nikon Apo TIRF 60×/1.49 oil immersion objective and Andor iXon 885 electron-multiplying charge-coupled device camera (Oxford Instruments, Abingdon, Oxfordshire, UK), was under the control of the Nikon NIS Elements AR software. Images were alternately acquired at 480/30 nm excitation/510 nm dichroic mirror/535/40 nm emission for eGFP fluorescence and at 540/25 nm excitation/565 nm dichroic mirror/605/55 nm emission for TAMRA fluorescence. […]

CiOX [7] = target: T1, CiOX; test: Binding of TAMRA-orexin-A (fluorescence microscopy) in CiOX-eGFP-expressing cells; conditions: 30 nM
Description: as §1
The cells were seeded on polyethyleneimine-coated 25 mm circular glass coverslips (Menzel-Gläser, Braunschweig, Germany). Twenty-four hours after seeding, cells were treated with doxycycline (100 ng/mL) and incubated for another 24 h. Then, the coverslip was washed once with HBM, before mounting in the microfluorometric experiment chamber. The imaging system, composed of the Sutter Lambda DG-4 xenon light source/filter shifter (Sutter Instrument Company, Novato, CA, USA), Nikon TE2000 epifluorescence microscope (Nikon, Tokyo, Japan), Nikon Apo TIRF 60×/1.49 oil immersion objective and Andor iXon 885 electron-multiplying charge-coupled device camera (Oxford Instruments, Abingdon, Oxfordshire, UK), was under the control of the Nikon NIS Elements AR software. Images were alternately acquired at 480/30 nm excitation/510 nm dichroic mirror/535/40 nm emission for eGFP fluorescence and at 540/25 nm excitation/565 nm dichroic mirror/605/55 nm emission for TAMRA fluorescence. A pair of images was acquired once per minute or once per every five minutes depending on the incubation time; i.e., for a longer incubation 5 min was used to avoid potential bleaching. All the additions were made by direct pipetting into the chamber. Experiments were carried out at room temperature. 30 nM TAMRA-orexin-A was used.

hOX1 = test: Binding of TAMRA-orexin-A (fluorescence microscopy) in hOX1-eGFP-expressing cells; set-up: species or system human; conditions: 30 nM
Description: as §1, §2

[8] = target: Ciona intestinalis putative orexin receptor fused to eGFP (Ciona intestinalis)
[9] = room temperature, red fluorescence

Compound: COc1ccc(-c2cccc(C(=O)N(C)C)c2)cc1S(=O)(=O)Nc1cccc(NCCNC(=O)c2cccc(C)c2)c1 [Nag 26, N-[2-[3-[[5-[3-(dimethylcarbamoyl)phenyl]-2-methoxyphenyl]sulfonylamino]anilino]ethyl]-3-methylbenzamide]
Ca2+ elevation in CiOX receptor-expressing cells (CiOX [1]): induced no Ca^2+ elevation
Ca2+ elevation in wild-type cells [2]: induced no Ca^2+ elevation

Compound: M. sexta allatotropin: Manduca sexta allatotropin from Bachem (GFKNVEMMTARGF)
Ca2+ elevation in CiOX receptor-expressing cells (CiOX [1]): induced no Ca^2+ elevation
Ca2+ elevation in wild-type cells [2]: induced no Ca^2+ elevation

Compound: CNC(=O)[C@@H](c1ccccc1)N1CCc2cc(OC)c(OC)cc2[C@@H]1CCc1ccc(C(F)(F)F)cc1 [almorexant, (2R)-2-[(1S)-6,7-dimethoxy-1-[2-[4-(trifluoromethyl)phenyl]ethyl]-3,4-dihydro-1H-isoquinolin-2-yl]-N-methyl-2-phenylacetamide]
Inhibition of Ca2+ responses to CiOX stimulation with orexin-A and -B (CiOX [3]): nearly fully blocked the response
Inhibition of the allatotropin receptor of Tribolium castaneum [4]: not inhibited

Compound: Nc1ncnc2c1ncn2[C@@H]1O[C@H](COP(=O)(O)OP(=O)(O)OP(=O)(O)O)[C@@H](O)[C@H]1O [ATP]
Ca2+ response to positive control in CiOX-expressing cells (CiOX [5]): robust Ca^2+ response
Ca2+ response to positive control in wild-type cells ([2]; 100 µM): robust Ca^2+ response

Compound: orexin-A15–33: The 19-amino acid-long C-terminal fragment of orexin-A (RLYELLHGAGNHAAGILTL; ends and bridges not checked)
EC50 of Ca2+ elevation (CiOX [1]; doxycycline 100 ng/mL 24 h, 37 °C, mean ± S.E.M., N = 3): no saturation was reached
Ca2+ elevation in wild-type cells [2]: weakly elevated Ca^2+

Compound: TAMRA-orexin-A: 5-/6-carboxytetramethylrhodamine (TAMRA)-labelled human orexin-A, custom synthesis (QPLPDCCRQKTCSCRLYELLHGAGNHAAGILTL; ends and bridges not checked; also: TAMRA label, place not given here; UniProt O43612 34-66, looked up)
Binding to wild-type Flp-In T-REx 293 cells [6]: did not bind
Internalization (intracellular red fluorescence) in CiOX receptor-expressing cells (CiOX [7]): did not observe this
Time for which the bound fluorescence intensity remained stable in CiOX-eGFP-expressing cells (CiOX [7]; room temperature): at least 30 min
Binding to the plasma membranes of CiOX-eGFP-expressing cells (CiOX [7]; [9]): bound to the plasma membranes of the CiOX receptor-expressing cells
Internalization (intracellular red fluorescence) in hOX1 receptor-expressing cells (hOX1): intracellular red fluorescence suggesting internalization
Binding to the plasma membranes of hOX1-eGFP-expressing cells (hOX1; [9]): bound to the plasma membranes of OX1 cells quickly after the addition

Compound: Cc1nc2ccc(NC(=O)Nc3ccnc4cccnc34)cc2o1 [SB-334867]
Inhibition of Ca2+ responses to CiOX stimulation with orexin-A and -B (CiOX [3]): much weaker effect

Compound: [(1R)-1-[(3S,6S,9S,12S,18R,21S,22R)-21-acetamido-18-benzyl-3-[(1R)-1-methoxyethyl]-4,9,10,12,16-pentamethyl-15-methylidene-2,5,8,11,14,17,20-heptaoxo-22-propan-2-yl-1,19-dioxa-4,7,10,13,16-pentazacyclodocos-6-yl]-2-methylpropyl] (2S,3R)-3-hydroxy-4-methyl-2-(propanoylamino)pentanoate [UBO-QIC]
Inhibition of Ca2+ responses to CiOX stimulation with orexin-A and -B (CiOX [3]): nearly fully inhibited

EC50 of the Ca2+ elevation in CiOX-eGFP-expressing Flp-In T-REx 293 cells (CiOX-specific response, wild-type response subtracted) [8]: 225 nM
Compound: human orexin-A (peptide)

Compound: Cn1c(SCC(=O)N2CCC[C@H]2C(=O)Nc2ccccc2-c2ccccc2)nc2ccccc21 [TCS 1102, (2S)-1-[2-(1-methylbenzimidazol-2-yl)sulfanylacetyl]-N-(2-phenylphenyl)pyrrolidine-2-carboxamide]
Inhibition of Ca2+ responses to CiOX stimulation with orexin-A and -B (CiOX [3]): nearly fully blocked the response
